This note sets out measurements from patent US11180462B2, “Microbiocidal oxadiazole derivatives” (SYNGENTA PARTICIPATIONS AG, priority 2015, dated 2021).

Data set [1] deals with Glomerella lagenarium (Colletotrichum lagenarium). The data set is described as follows: Fungicidal activity against Glomerella lagenarium (Colletotrichum lagenarium) liquid culture / cucumber / preventative (anthracnose). The class given is cell-based. Particulars: Colletotrichum orbiculare; 20 ppm in the applied formulation; liquid culture (PDB), growth inhibition measured photometrically after 3 to 4 days; compared to untreated control; read-out: disease control. A digest of the protocol:
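Percent activity against the untreated check was derived from photometric growth measurements made 2 to 7 days after conidia in potato dextrose broth were combined with compound at 20 ppm. Cultures were kept dark at 24 °C and 96% humidity.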

For data set [2], the system named is Phakopsora Pachyrhizi. Description: Fungicidal activity against Phakopsora pachyrhizi / soybean / leaf disc preventative (Asian soybean rust). The class given is in vivo. Particulars: foliar, 200 ppm in the applied formulation, soybean leaf disks, compared to untreated control leaf disks, read-out: disease control. A digest of the protocol:
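Scored 12 to 14 days post-application as percent control relative to untreated check discs, rust spores were sprayed under the disc one day after compound treatment. Incubation: 20°C, 75% rh, first 24–36 h in darkness, then 12 h daily light; discs kept on water agar.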

For data set [3], the system named is Puccinia recondita f. Sp. Tritici. Description: Fungicidal activity against Puccinia recondita f. sp. tritici / wheat / leaf disc preventative (brown rust). The class given is in vivo. The conditions noted are these: foliar, 200 ppm in the applied formulation, wheat leaf segments, preventative, compared to untreated control leaf disks, read-out: disease control. A digest of the protocol: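 200 ppm spray on wheat cv. Kanzler leaf segments; spore inoculation +1 day; 19° C., 75% rh, 12 h/12 h light cycle; single rating of % control vs untreated at 7 to 9 days.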

Data set [4] shares this test system. The data set is described as follows: Fungicidal activity against Puccinia recondita f. sp. tritici / wheat / leaf disc curative (brown rust). The class given is in vivo. The conditions noted are these: foliar, 24 h, 200 ppm in the applied formulation, wheat leaf segments, curative (applied 1 day after inoculation), compared to untreated control leaf disks, read-out: disease control. A digest of the protocol: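 Curative test on wheat leaf segments (cv. Kanzler) on agar, inoculated with spore suspension and held dark at 19° C, 75% RH; formulated compound in water applied 1 day after inoculation. Incubated at 19° C, 75% RH, 12 h light/12 h dark; percent disease control versus untreated scored 6 to 8 days after application.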

Each structure is given as a SMILES string.

By melting point is commonly meant the temperature, or range, at which the solid turns liquid. As to `CNC(=O)N(C)Cc1ccc(-c2noc(C(F)(F)F)n2)cc1` [Compound 3.37, 1,3-dimethyl-1-[[4-[5-(trifluoromethyl)-1,2,4-oxadiazol-3-yl]phenyl]methyl]urea], the melting point was in the range of 95 to 98 °C. Further, the inhibition of growth at 20 ppm in data set [1] was ≥ 80%. For the same compound, in data set [2], the pest or weed control at 200 ppm is ≥ 80%. Moreover, in data set [3], the pest or weed control at 200 ppm is ≥ 80%. The pest or weed control at 200 ppm in data set [4] is ≥ 80%.
`CON(Cc1ccc(-c2noc(C(F)(F)F)n2)cc1)C(=O)NC1(C)CC1` [Compound 3.46, 1-methoxy-3-(1-methylcyclopropyl)-1-[[4-[5-(trifluoromethyl)-1,2,4-oxadiazol-3-yl]phenyl]methyl]urea] came in with a melting point of 93 to 97 °C. Further, the inhibition of growth at 20 ppm in data set [1] is ≥ 80%. In addition, in data set [2], the pest or weed control at 200 ppm is ≥ 80%. In addition, the pest or weed control at 200 ppm in data set [3] is ≥ 80%. Further, the pest or weed control at 200 ppm in data set [4] is ≥ 80%.
For `CN(Cc1ccc(-c2noc(C(F)(F)F)n2)cc1)C(=O)NC1CC1` [Compound 3.56, 3-cyclopropyl-1-methyl-1-[[4-[5-(trifluoromethyl)-1,2,4-oxadiazol-3-yl]phenyl]methyl]urea], the melting point lay in the range of 113 to 121 °C. For the same compound, in data set [1], the inhibition of growth at 20 ppm is ≥ 80%. For the same compound, in data set [2], the pest or weed control at 200 ppm was ≥ 80%. For the same compound, the pest or weed control at 200 ppm in data set [3] is ≥ 80%. For the same compound, the pest or weed control at 200 ppm in data set [4] was ≥ 80%.
Turning to `CON(Cc1ccc(-c2noc(C(F)(F)F)n2)cc1)C(=O)NCC(=O)N(C)C` [Compound 3.51, 2-[[methoxy-[[4-[5-(trifluoromethyl)-1,2,4-oxadiazol-3-yl]phenyl]methyl]-carbamoyl]amino]-N,N-dimethyl-acetamide], the melting point was 98 to 101 °C. Also, the inhibition of growth at 20 ppm in data set [1] was ≥ 80%. Besides, in data set [2], the pest or weed control at 200 ppm was ≥ 80%. The pest or weed control at 200 ppm in data set [3] was ≥ 80%. Besides, in data set [4], the pest or weed control at 200 ppm was ≥ 80%.
The compound `CCC(=O)N(Cc1ccc(-c2noc(C(F)(F)F)n2)cc1)C1COC1` [Compound 1.604, N—(Oxetan-3-yl)-N-[[4-[5-(Trifluoromethyl)-1,2,4-Oxadiazol-3-yl]Phenyl]Methyl]Propanamide] yielded a melting point of 88.8 to 93.5 °C. Besides, in data set [1], the inhibition of growth at 20 ppm was ≥ 80%. Further, the pest or weed control at 200 ppm in data set [2] was ≥ 80%. Besides, the pest or weed control at 200 ppm in data set [3] is ≥ 80%. Besides, the pest or weed control at 200 ppm in data set [4] was ≥ 80%.
`CCC(=O)N(C)C(C#N)c1ccc(-c2noc(C(F)(F)F)n2)cc1` (stereo not drawn) [Compound 1.611, N-[cyano-[4-[5-(trifluoromethyl)-1,2,4-oxadiazol-3-yl]phenyl]methyl]-N-methyl-propanamide] gave a melting point of 75 to 76 °C. For the same compound, the inhibition of growth at 20 ppm in data set [1] is ≥ 80%. Moreover, in data set [2], the pest or weed control at 200 ppm is ≥ 80%. The pest or weed control at 200 ppm in data set [3] was ≥ 80%. In data set [4], the pest or weed control at 200 ppm was ≥ 80%.
In the case of `CON(C)C(=O)N(O)Cc1ccc(-c2noc(C(F)(F)F)n2)cc1` [Compound 3.29, 1-hydroxy-3-methoxy-3-methyl-1-[[4-[5-(trifluoromethyl)-1,2,4-oxadiazol-3-yl]phenyl]methyl]urea], the melting point lay in the range of 96.3 to 100.5 °C. Moreover, the inhibition of growth at 20 ppm in data set [1] was ≥ 80%. For the same compound, the pest or weed control at 200 ppm in data set [2] is ≥ 80%. The pest or weed control at 200 ppm in data set [3] is ≥ 80%. Moreover, the pest or weed control at 200 ppm in data set [4] was ≥ 80%.
In turn, `CON(Cc1ccc(-c2noc(C(F)(F)F)n2)cc1)C(=O)NC1COC1` [Compound 3.55, 1-methoxy-3-(oxetan-3-yl)-1-[[4-[5-(trifluoromethyl)-1,2,4-oxadiazol-3-yl]phenyl]methyl]urea] showed a melting point of 97 to 100 °C. The inhibition of growth at 20 ppm in data set [1] was ≥ 80%. Besides, the pest or weed control at 200 ppm in data set [2] was ≥ 80%. In data set [3], the pest or weed control at 200 ppm is ≥ 80%. In addition, the pest or weed control at 200 ppm in data set [4] is ≥ 80%.
`CON(C)C(=O)N(C)C(C#N)c1ccc(-c2noc(C(F)(F)F)n2)cc1` (stereo not drawn) [Compound 3.31, 1-[cyano-[4-[5-(trifluoromethyl)-1,2,4-oxadiazol-3-yl]phenyl]methyl]-3-methoxy-1,3-dimethyl-urea] registered a melting point of 106 to 107 °C. The inhibition of growth at 20 ppm in data set [1] is ≥ 80%. Besides, the pest or weed control at 200 ppm in data set [2] was ≥ 80%. Moreover, the pest or weed control at 200 ppm in data set [3] is ≥ 80%. In data set [4], the pest or weed control at 200 ppm is ≥ 80%.
`COC(=O)N(O)Cc1ccc(-c2noc(C(F)(F)F)n2)cc1` [Compound 2.24, methyl N-hydroxy-N-[[4-[5-(trifluoromethyl)-1,2,4-oxadiazol-3-yl]phenyl]methyl]-carbamate]: the melting point was in the range of 73 to 75.1 °C. Moreover, the inhibition of growth at 20 ppm in data set [1] is ≥ 80%. For the same compound, the pest or weed control at 200 ppm in data set [2] was ≥ 80%. The pest or weed control at 200 ppm in data set [3] was ≥ 80%. In addition, the pest or weed control at 200 ppm in data set [4] was ≥ 80%.
The compound `CON(Cc1ccc(-c2noc(C(F)(F)F)n2)cc1)C(=O)N[C@@H](C)C1CC1` [Compound 3.41, 3-[(1S)-1-cyclopropylethyl]-1-methoxy-1-[[4-[5-(trifluoromethyl)-1,2,4-oxadiazol-3-yl]phenyl]methyl]urea] came in with a melting point of 99 to 102 °C. For the same compound, the inhibition of growth at 20 ppm in data set [1] is ≥ 80%. Also, the pest or weed control at 200 ppm in data set [2] was ≥ 80%. In addition, the pest or weed control at 200 ppm in data set [3] is ≥ 80%. For the same compound, in data set [4], the pest or weed control at 200 ppm was ≥ 80%.
For the compound `CCOC(=O)C1(NC(=O)N(Cc2ccc(-c3noc(C(F)(F)F)n3)cc2)OC)CC1` [Compound 3.48, ethyl 1-[[methoxy-[[4-[5-(trifluoromethyl)-1,2,4-oxadiazol-3-yl]phenyl]methyl]-carbamoyl]amino]-cyclopropanecarboxylate], the melting point lay within 93 to 97 °C. For the same compound, in data set [1], the inhibition of growth at 20 ppm is ≥ 80%. Also, the pest or weed control at 200 ppm in data set [2] is ≥ 80%. Further, the pest or weed control at 200 ppm in data set [3] is ≥ 80%. The pest or weed control at 200 ppm in data set [4] is ≥ 80%.
In turn, `CON(Cc1ccc(-c2noc(C(F)(F)F)n2)cc1)C(=O)NC(C)C` [Compound 3.42, 3-isopropyl-1-methoxy-1-[[4-[5-(trifluoromethyl)-1,2,4-oxadiazol-3-yl]phenyl]methyl]urea] gave a melting point of 106 to 107.3 °C. Also, in data set [1], the inhibition of growth at 20 ppm is ≥ 80%. Also, in data set [2], the pest or weed control at 200 ppm was ≥ 80%. In addition, in data set [3], the pest or weed control at 200 ppm is ≥ 80%. Also, the pest or weed control at 200 ppm in data set [4] was ≥ 80%.
Turning to `CCC(=O)N(O)Cc1ccc(-c2noc(C(F)(F)F)n2)cc1` [Compound 1.603, N-hydroxy-N-[[4-[5-(trifiuoromethyl)-1,2,4-oxadiazol-3-yl]phenyl]methyl]-propanamide], the melting point fell in the range of 141.2 to 143.5 °C. In addition, in data set [1], the inhibition of growth at 20 ppm is ≥ 80%. Further, the pest or weed control at 200 ppm in data set [2] was ≥ 80%. Also, the pest or weed control at 200 ppm in data set [3] was ≥ 80%. Also, in data set [4], the pest or weed control at 200 ppm is ≥ 80%.
Compound `CON(Cc1ccc(-c2noc(C(F)(F)F)n2)cc1)C(=O)NC1CC1` [Compound 3.14, 3-cyclopropyl-1-methoxy-1-[[4-[5-(trifluoromethyl)-1,2,4-oxadiazol-3-yl]phenyl]methyl]urea] registered a melting point of 84 to 87 °C. Also, the inhibition of growth at 20 ppm in data set [1] is ≥ 80%. For the same compound, the pest or weed control at 200 ppm in data set [2] is ≥ 80%. The pest or weed control at 200 ppm in data set [3] was ≥ 80%. In addition, in data set [4], the pest or weed control at 200 ppm was ≥ 80%.
Take `O=C(C1CC1)N(O)Cc1ccc(-c2noc(C(F)(F)F)n2)cc1` [Compound 1.607, N-hydroxy-N-[[4-[5-(trifiuoromethyl)-1,2,4-oxadiazol-3-yl]phenyl]methyl]-cyclopropane-carboxamide]: the melting point is 141.2 to 143.5 °C. In addition, the inhibition of growth at 20 ppm in data set [1] is ≥ 80%. The pest or weed control at 200 ppm in data set [2] was ≥ 80%. Moreover, the pest or weed control at 200 ppm in data set [3] is ≥ 80%. Moreover, in data set [4], the pest or weed control at 200 ppm is ≥ 80%.
On to `COCC(=O)N(Cc1ccc(-c2noc(C(F)(F)F)n2)cc1)CC(F)(F)F` [Compound 1.583, 2-methoxy-N-(2,2,2-trifluoroethyl)-N-[[4-[5-(trifluoromethyl)-1,2,4-oxadiazol-3-yl]phenyl]methyl]-acetamide], for which the melting point was 92.6 to 94.3 °C. The inhibition of growth at 20 ppm in data set [1] was ≥ 80%. The pest or weed control at 200 ppm in data set [2] is ≥ 80%. For the same compound, in data set [3], the pest or weed control at 200 ppm was ≥ 80%. For the same compound, the pest or weed control at 200 ppm in data set [4] is ≥ 80%.
For the compound `CON(Cc1ccc(-c2noc(C(F)(F)F)n2)cc1)C(=O)NCC#N` [Compound 3.39, 3-(cyanomethyl)-1-methoxy-1-[[4-[5-(trifluoromethyl)-1,2,4-oxadiazol-3-yl]phenyl]methyl]urea], the melting point lay in the range of 155 to 158 °C. Also, in data set [1], the inhibition of growth at 20 ppm is ≥ 80%. Besides, in data set [2], the pest or weed control at 200 ppm is ≥ 80%. Also, in data set [3], the pest or weed control at 200 ppm is ≥ 80%. For the same compound, in data set [4], the pest or weed control at 200 ppm is ≥ 80%.
